In ChEMBL document CHEMBL5532661, “Discovery of a Novel Glucagon-like Peptide-1 (GLP-1) Analogue from Bullfrog and Investigation of Its Potential for Designing GLP-1-Based Multiagonists” (J Med Chem, 2024) one finds EC50 and Activity data, which are given here for five molecules.

The source made the active and inactive calls. The calls are words filed in the database; no cut-off is given here. Numbered stars: 1 amine (or outer) side, 2 acyl side, 3 side chain; on linkers, the order of the positions; unused ones are H or OH. Square brackets hold non-standard residues; d marks the D form. Side chains are listed from the residue outwards. Peptide text beside a SMILES is read from it. * marks the point of attachment. C20 diacid = O=C(O)CCCCCCCCCCCCCCCCCCC(=O)*; C18 diacid = O=C(O)CCCCCCCCCCCCCCCCC(=O)*; γGlu = O=C(O)[C@H](CCC(=O)[*:2])N[*:1]; Palmitoyl = CCCCCCCCCCCCCCCC(=O)*; AEEA = NCCOCCOCC(=O)O; Aib = CC(C)(N)C(=O)O

The target of assay [1] is T1, Glucagon-like peptide 1 receptor (Homo sapiens, UniProt P43220). In words: Agonist activity at human GLP-1 receptor expressed in HEK293 cells assessed as cAMP level measured after 60 mins by HTRF based assay. It counts as functional, cell-based.
T1 sequence (P43220 whole entry): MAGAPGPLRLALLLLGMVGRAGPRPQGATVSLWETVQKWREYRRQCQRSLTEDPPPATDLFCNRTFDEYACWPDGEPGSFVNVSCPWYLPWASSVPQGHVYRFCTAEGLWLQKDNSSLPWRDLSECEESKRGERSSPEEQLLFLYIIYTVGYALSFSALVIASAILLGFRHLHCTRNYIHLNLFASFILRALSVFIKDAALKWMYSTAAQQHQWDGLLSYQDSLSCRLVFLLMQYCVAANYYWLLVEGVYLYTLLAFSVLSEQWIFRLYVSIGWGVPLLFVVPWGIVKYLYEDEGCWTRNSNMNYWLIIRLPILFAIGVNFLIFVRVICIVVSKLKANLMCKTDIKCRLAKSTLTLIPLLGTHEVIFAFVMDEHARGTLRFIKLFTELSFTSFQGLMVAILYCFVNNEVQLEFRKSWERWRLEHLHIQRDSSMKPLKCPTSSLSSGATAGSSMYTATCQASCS
Assay [2] addresses T1, Glucagon-like peptide 1 receptor. Briefly: Agonist activity at human GLP-1 receptor expressed in HEK293 cells assessed as cAMP level by measuring relative percent (GLP-1 EC50/compound EC50) measured after 60 mins by HTRF based assay relative to GLP-1. It is filed as functional, cell-based. The settings on record: filed as agonist.
Assay [3] has as its target T2, Gastric inhibitory polypeptide receptor (Homo sapiens, UniProt P48546).
T2 sequence (P48546 whole entry): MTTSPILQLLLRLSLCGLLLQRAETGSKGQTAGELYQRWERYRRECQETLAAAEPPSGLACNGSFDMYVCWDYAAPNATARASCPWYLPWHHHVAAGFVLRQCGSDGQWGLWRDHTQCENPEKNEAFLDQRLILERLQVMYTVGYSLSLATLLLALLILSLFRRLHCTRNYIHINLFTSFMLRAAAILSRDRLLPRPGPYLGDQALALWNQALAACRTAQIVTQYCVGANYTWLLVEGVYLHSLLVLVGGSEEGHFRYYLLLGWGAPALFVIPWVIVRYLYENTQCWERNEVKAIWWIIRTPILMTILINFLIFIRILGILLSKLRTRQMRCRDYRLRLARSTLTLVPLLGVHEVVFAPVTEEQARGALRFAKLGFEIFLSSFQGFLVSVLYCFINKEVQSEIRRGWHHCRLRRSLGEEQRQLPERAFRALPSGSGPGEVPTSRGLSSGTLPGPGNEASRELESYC
Briefly: Agonist activity at human GIPR receptor expressed in HEK293 cells assessed as cAMP level measured after 60 mins by HTRF based assay. It counts as functional, cell-based.

Assay [4] has as its target T3, Glucagon receptor (Homo sapiens, UniProt P47871). Briefly: Agonist activity at human GCGR expressed in HEK293 cells assessed as cAMP level by measuring relative percent (glucagon EC50/compound EC50) measured after 60 mins by HTRF based assay relative to glucagon. It is filed as functional, cell-based.
Assay [5] addresses T4, Gastric inhibitory polypeptide receptor (Homo sapiens) (UniProt P48546).
T4 sequence (whole entry): T2 sequence (P48546 whole entry)
Briefly: Agonist activity at human GIPR receptor expressed in HEK293 cells assessed as cAMP level by measuring relative percent (GIP EC50/compound EC50) measured after 60 mins by HTRF based assay relative to GIP. It counts as functional, cell-based.

The target of assay [6] is T3, Glucagon receptor. In words: Agonist activity at human GCGR expressed in HEK293 cells assessed as cAMP level measured after 60 mins by HTRF based assay. It is filed as functional, cell-based.
The test system of assay [7] is Mus musculus. In words: Reduction in serum AST in DIO mouse at 30 nmol/kg, sc treated every 2 and half day once measured after 21 days. It is filed as functional, organism-based. The settings on record: time 21.0 day.
In assay [8] the test system is Mus musculus. In words: Anorexigenic effect in ICR mouse assessed as decrease in food intake at 30 nmol/kg, sc measured upto 72 hrs by acute food intake study. It counts as functional, organism-based.
Assay [9] relates to Mus musculus. In words: Reduction in serum ALT in DIO mouse at 30 nmol/kg, sc treated every 2 and half day once measured after 21 days. It is filed as functional, organism-based. The settings on record: time 21.0 day.
Assay [10] has as its system Mus musculus. Briefly: Hypoglycemic effect in ICR mouse treated with 3 g/kg glucose assessed as reduction in blood glucose level at 30 nmol/kg, sc measured upto 120 mins pretreated with GLP-1R antagonist by OGTT. It counts as functional, organism-based.
For assay [11], the system named is Mus musculus. Briefly: Antihyperglycemic effect in DIO mouse assessed as antihyperglycemic duration by measuring blood glucose at 30 nmol/kg, sc administered twice daily measured by hypoglycemic duration assay. It counts as functional, organism-based.
Assay [12] has as its system Mus musculus. In words: Hypoglycemic effect in ICR mouse treated with 3 g/kg glucose assessed as reduction in blood glucose level at 100 nmol/kg, sc measured upto 120 mins by acute glucose lowering test. It is filed as functional, organism-based.
The subject of assay [13] is Mus musculus. In words: Reduction in body weight in DIO mouse at 30 nmol/kg, sc treated every 2 and half day once measured after 21 days. It counts as functional. Set-up: scale not given: the % may be the effect or the level left.
For assay [14], the system named is Mus musculus. In words: Reduction in feed intake in DIO mouse at 30 nmol/kg, sc treated twice a day measured after 21 days. It counts as functional, organism-based. The settings on record: time 21.0 day.
The test system of assay [15] is Mus musculus. Briefly: Anorexigenic effect in ICR mouse assessed as decrease in food intake at 30 nmol/kg, sc measured at 48 hrs by acute food intake study. It counts as functional, organism-based.
Assay [16] concerns Mus musculus. In words: Hypoglycemic effect in ICR mouse treated with 3 g/kg glucose assessed as reduction in blood glucose level at 30 nmol/kg, sc measured upto 120 mins pretreated with GLP-1R and GIPR antagonist by OGTT. It is filed as functional, organism-based.
Assay [17] deals with Mus musculus. In words: Antihyperglycemic effect in non-fasted DIO mouse assessed as decrease in blood glucose at 30 nmol/kg, sc measured upto 48 hrs. It is filed as functional, organism-based.

T3 sequence (P47871 whole entry): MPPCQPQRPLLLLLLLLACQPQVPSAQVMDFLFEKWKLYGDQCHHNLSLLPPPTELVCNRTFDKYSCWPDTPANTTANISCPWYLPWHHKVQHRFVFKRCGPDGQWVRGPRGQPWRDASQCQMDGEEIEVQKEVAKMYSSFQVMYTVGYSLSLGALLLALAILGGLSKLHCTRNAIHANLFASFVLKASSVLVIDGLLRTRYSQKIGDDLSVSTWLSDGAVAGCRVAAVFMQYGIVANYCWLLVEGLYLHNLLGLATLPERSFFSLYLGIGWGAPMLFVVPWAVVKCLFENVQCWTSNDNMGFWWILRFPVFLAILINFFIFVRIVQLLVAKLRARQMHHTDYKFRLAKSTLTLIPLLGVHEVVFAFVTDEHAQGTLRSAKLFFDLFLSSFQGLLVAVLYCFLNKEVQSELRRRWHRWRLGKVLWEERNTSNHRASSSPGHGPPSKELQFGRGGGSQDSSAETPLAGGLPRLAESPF

On to `CC[C@H](C)[C@H](NC(=O)[C@H](CCCCNC(=O)COCCOCCNC(=O)COCCOCCNC(=O)CC[C@H](NC(=O)CCCCCCCCCCCCCCCCC(=O)O)C(=O)O)NC(=O)[C@H](CCC(=O)O)NC(=O)[C@H](CC(C)C)NC(=O)[C@H](C)NC(=O)[C@H](CCCNC(=N)N)NC(=O)[C@H](CO)NC(=O)[C@H](CC(C)C)NC(=O)[C@H](CC(=O)O)NC(=O)[C@H](CO)NC(=O)[C@@H](NC(=O)[C@H](Cc1ccccc1)NC(=O)[C@@H](NC(=O)CNC(=O)[C@H](CCC(N)=O)NC(=O)C(C)(C)NC(=O)[C@@H](N)Cc1c[nH]cn1)[C@@H](C)O)[C@@H](C)O)C(=O)N[C@@H](C)C(=O)N[C@@H](C)C(=O)N[C@@H](CCCNC(=N)N)C(=O)N[C@@H](CC(C)C)C(=O)N[C@@H](Cc1ccccc1)C(=O)N[C@H](C(=O)N[C@@H](CCC(=O)O)C(=O)N[C@@H](Cc1c[nH]c2ccccc12)C(=O)N[C@@H](CC(C)C)C(=O)N[C@H](C(=O)N[C@@H](CCC(=O)O)C(=O)NCC(=O)NCC(=O)N1CCC[C@H]1C(=O)N[C@@H](CO)C(=O)N[C@@H](CO)C(=O)NCC(=O)N[C@@H](C)C(=O)N1CCC[C@H]1C(=O)N1CCC[C@H]1C(=O)N1CCC[C@H]1C(=O)N[C@@H](CO)C(N)=O)[C@@H](C)CC)[C@@H](C)CC` (H-H[Aib]QGTFTSDLSRALEK([AEEA-AEEA-γGlu-C18 diacid])IAARLFIEWLIEGGPSSGAPPPS-NH2), for which the EC50 in assay [1] worked out at 0.022 nM; in assay [3] it was 0.97 nM; in assay [6], 1.8 nM. Also, the Activity in [2] came to 241%; in assay [4], 5%; in [5] it was 3%.
For SEMAGLUTIDE, the outcome in assay [7], in assay [8], in [9], in assay [11] and in assay [12] was Active. In addition, the result in assay [10] was inactive. The Activity in assay [13] (time 21.0 day) was 18.6%.
Regarding `CC[C@H](C)[C@H](NC(=O)[C@H](CCCCNC(=O)COCCOCCNC(=O)COCCOCCNC(=O)CC[C@H](NC(=O)CCCCCCCCCCCCCCCCCCC(=O)O)C(=O)O)NC(=O)[C@H](CCC(=O)O)NC(=O)[C@H](CC(C)C)NC(=O)[C@H](C)NC(=O)[C@H](CCCNC(=N)N)NC(=O)[C@H](CO)NC(=O)[C@H](CCSC)NC(=O)[C@H](CC(=O)O)NC(=O)[C@H](CO)NC(=O)[C@@H](NC(=O)[C@H](Cc1ccccc1)NC(=O)[C@@H](NC(=O)CNC(=O)[C@H](CCC(N)=O)NC(=O)C(C)(C)NC(=O)[C@@H](N)Cc1c[nH]cn1)[C@@H](C)O)[C@@H](C)O)C(=O)N[C@@H](C)C(=O)N[C@@H](C)C(=O)N[C@@H](CCCNC(=N)N)C(=O)N[C@@H](CC(C)C)C(=O)N[C@@H](Cc1ccccc1)C(=O)N[C@H](C(=O)N[C@@H](CC(=O)O)C(=O)N[C@@H](Cc1c[nH]c2ccccc12)C(=O)N[C@@H](CC(C)C)C(=O)N[C@H](C(=O)N[C@@H](CCC(=O)O)C(=O)NCC(=O)NCC(=O)N1CCC[C@H]1C(=O)N[C@@H](CO)C(=O)N[C@@H](CO)C(=O)NCC(=O)N[C@@H](C)C(=O)N1CCC[C@H]1C(=O)N1CCC[C@H]1C(=O)N1CCC[C@H]1C(=O)N[C@@H](CO)C(N)=O)[C@@H](C)CC)C(C)C` (H-H[Aib]QGTFTSDMSRALEK([AEEA-AEEA-γGlu-C20 diacid])IAARLFVDWLIEGGPSSGAPPPS-NH2), the EC50 worked out at 0.018 nM in assay [1], 0.96 nM in [3] and 0.53 nM in assay [6]. Moreover, the Activity in assay [2] came out at 294%; in assay [4], 17%; in [5], 3%.
As for `CC[C@H](C)[C@H](NC(=O)[C@H](Cc1ccccc1)NC(=O)[C@H](C)NC(=O)C(C)(C)NC(=O)[C@H](CCC(N)=O)NC(=O)[C@H](C)NC(=O)[C@H](CCCCNC(=O)COCCOCCNC(=O)CC[C@H](NC(=O)CCCCCCCCCCCCCCCCCCC(=O)O)C(=O)O)NC(=O)[C@H](CCCCN)NC(=O)[C@H](CC(=O)O)NC(=O)[C@H](CC(C)C)NC(=O)[C@](C)(CC(C)C)NC(=O)[C@@H](NC(=O)[C@H](CO)NC(=O)[C@H](Cc1ccc(O)cc1)NC(=O)[C@H](CC(=O)O)NC(=O)[C@H](CO)NC(=O)[C@@H](NC(=O)[C@H](Cc1ccccc1)NC(=O)[C@@H](NC(=O)CNC(=O)[C@H](CCC(N)=O)NC(=O)C(C)(C)NC(=O)[C@@H](N)Cc1ccc(O)cc1)[C@@H](C)O)[C@@H](C)O)[C@@H](C)CC)C(=O)N[C@@H](CCC(=O)O)C(=O)N[C@@H](Cc1ccc(O)cc1)C(=O)N[C@@H](CC(C)C)C(=O)N[C@@H](CC(C)C)C(=O)N[C@@H](CCC(=O)O)C(=O)NCC(=O)NCC(=O)N1CCC[C@H]1C(=O)N[C@@H](CO)C(=O)N[C@@H](CO)C(=O)NCC(=O)N[C@@H](C)C(=O)N1CCC[C@H]1C(=O)N1CCC[C@H]1C(=O)N1CCC[C@H]1C(=O)N[C@@H](CO)C(N)=O`, the EC50 is 0.041 nM in [1], 0.022 nM in assay [3] and 0.23 nM in [6]. Also, the result in assay [14], in assay [15], in assay [7], in [8], in [9] and in [11] was Active. The outcome in assay [12] was Active. Moreover, the result in assay [16] was inactive. Moreover, in [13] (time 21 day), the Activity came out at 38.5%.
Consider `CCCCCCCCCCCCCCCC(=O)N[C@@H](CCC(=O)NCCCC[C@H](NC(=O)[C@H](C)NC(=O)[C@H](C)NC(=O)[C@H](CCC(=O)O)NC(=O)[C@H](CCC(=O)O)NC(=O)[C@H](CCC(=O)O)NC(=O)[C@H](CC(C)C)NC(=O)[C@H](Cc1ccc(O)cc1)NC(=O)[C@H](CO)NC(=O)[C@H](CO)NC(=O)[C@H](CCSC)NC(=O)[C@H](CC(=O)O)NC(=O)[C@H](CO)NC(=O)[C@@H](NC(=O)[C@H](Cc1ccccc1)NC(=O)[C@@H](NC(=O)CNC(=O)[C@H](CC(=O)O)NC(=O)C(C)(C)NC(=O)[C@@H](N)Cc1c[nH]cn1)[C@@H](C)O)[C@@H](C)O)C(=O)N[C@@H](CCC(=O)O)C(=O)N[C@@H](Cc1ccccc1)C(=O)N[C@H](C(=O)N[C@@H](CC(=O)O)C(=O)N[C@@H](Cc1c[nH]c2ccccc12)C(=O)N[C@@H](CC(C)C)C(=O)N[C@H](C(=O)N[C@@H](CCCCN)C(=O)NCC(=O)N[C@@H](CCCNC(=N)N)C(=O)N1CCC[C@H]1C(=O)N[C@@H](C)C(N)=O)[C@@H](C)CC)C(C)C)C(=O)O` (H-H[Aib]DGTFTSDMSSYLEEEAAK([γGlu-Palmitoyl])EFVDWLIKGRPA-NH2), for which the EC50 in assay [1] came out at 0.021 nM. In addition, in assay [17], the outcome was inactive.
